Laboratory results taken from US20150265642A1, “NAD BIOSYNTHESIS AND PRECURSORS IN THE PREVENTION AND TREATMENT OF INFLAMMATION” (PRESIDENT AND FELLOWS OF HARVARD COLLEGE, priority 2013, published 2015).

Legend:
[1] = system: inflammation related markers in aortas; assay: qPCR of inflammation related markers in aortas; type: in vivo, C57BL/6J mice; settings: 22-months-old mice, NMN IP 500 mg/kg/day, 7 days
Description: C57BL/6J mice of 3, 6, 22, or 24 months of age were obtained from the National Institutes of Aging mouse aging colony. Mice were acclimated for at least one-week prior to sacrifice. 3, 6, 22 and 24-month-old mice were given interperitoneal (IP) injections of 500 mg NMN/kg body weight per day or the equivalent volume of PBS for 7 consecutive days at 5:00 pm and 7:00 am on day 8 and sacrificed 4 hr after last injection. All animal studies followed the guidelines of and were approved by the Harvard Institutional Animal Care and Use Committee
RNA from skeletal muscle and aorta were extracted with RNeasy mini kit (Qiagen) according to the instructions and quantified using the NanoDrop 1000 spectrophotometer (Thermo Scientific). cDNA was synthesized with the iSCRIP cDNA synthesis kit (BioRad) using 600 ng of RNA. Quantitative RT-PCR reactions were performed using 1 μM of primers and LightCycler® 480 SYBR Green Master (Roche) on an LightCycler® 480 detection system (Roche). Calculations were performed by a comparative method (2-ΔCT) using 18S as an internal control. Primers were designed using the IDT software (IDT).

[2] = system: HIF-1α target genes (PGK-1, Glut1, PKD1, VEGFa); assay: qPCR of HIF-1α target genes in gastrocnemius of NMN-treated mice; type: in vivo; settings: 24-month-old mice; NMN 500 mg/kg IP, one week
Description: (§1) C57BL/6J mice of 3, 6, 22, 24, or 30 months of age were obtained from the National Institutes of Aging mouse aging colony. Mice were acclimated for at least one-week prior to sacrifice. 3, and 24-month-old mice were given interperitoneal (IP) injections of 500 mg NMN/kg body weight per day or the equivalent volume of PBS for 7 consecutive days at 5:00 pm and 7:00 am on day 8 and sacrificed 4 hr after last injection. All animal studies followed the guidelines of and were approved by the Harvard Institutional Animal Care and Use Committee
RNA from skeletal muscle tissue and C2C12 cells were extracted with RNeasy mini kit (Qiagen) according to the instructions and quantified using the NanoDrop 1000 spectrophotometer (Thermo Scientific). cDNA was synthesized with the iSCRIP cDNA synthesis kit (BioRad) using 600 ng of RNA. Quantitative RT-PCR reactions were performed using 1 μM of primers and LightCycler® 480 SYBR Green Master (Roche) on an LightCycler® 480 detection system (Roche). Calculations were performed by a comparative method (2-ΔCT) using 18S as an internal control. For mtDNA analysis, total DNA was extracted with DNeasy blood and tissue kit (Qiagen). mtDNA was amplified using primers specific for the mitochondrial cytochrome c oxidase subunit 2 (COX2) gene and normalized to genomic DNA by amplification of the ribosomal protein s18 (rps18) nuclear gene. […]

AKT and IRS-1 = assay: Insulin signaling (phosphorylation of AKT and IRS-1) in skeletal muscle; type: in vivo; settings: soleus of old mice treated with NMN
From the text: (§2) C57BL/6J mice of 6, 22, or 30 months of age were obtained from the National Institutes of Aging mouse aging colony. Additionally 22 months old caloric restricted mice were also obtained from the National Institutes of Aging mouse aging colony. EGLN1 KO, SIRT1 KO and SIRT1 OE mice were generated as previously described (Minamishima et al., 2008; Price et al., 2012). Mice were acclimated for at least one-week prior to sacrifice. 3, 6, 22 and 24-month-old mice were given interperitoneal (IP) injections of 500 mg NMN/kg body weight per day or the equivalent volume of PBS for 7 consecutive days at 5:00 pm and 7:00 am on day 8 and sacrificed 4 hr after last injection.
Protein extracts from tissue or C2C12 cells were obtained by lysis in ice-cold lysis buffer (150 mM NaCl, 10 mM Tris HCl (pH 7.4), 1 mM EDTA, 1 mM EGTA, 1% Triton X-100, 0.5% NP-40) supplemented with a cocktail of protease and phosphatase inhibitors (Roche). Protein content was determined by the Bradford protein assay (Biorad), and 50 μg proteins were run on SDS-PAGE under reducing conditions. The separated proteins were then electrophoretically transferred to a polyvinylidene difluoride membrane (Perkin-Elmer). […] The immunostaining was detected using horseradish peroxidase-conjugated anti-rabbit or anti-mouse immunoglobulin for 1 h at room temperature.

[3] = system: skeletal muscle mitochondria; assay: Mitochondrial function in skeletal muscle (membrane potential, ATP content, COX activity); type: in vivo, mice
Description: as §1
Skeletal muscle mitochondria were isolated as described previously (Frezza et al., Nat. Protoc. 2:287-295 (2007)). Mitochondrial membrane potential, cytochrome c activity and succinate dehydrogenase were determined as described (Brautigan et al., Methods Enzymol. 53:128-164 (1978); Rolo et al., Biochim. Biophys. Acta. 1637:127-132 ([…]); Singer, T. P., Methods Biochem. Anal. 22:123-175 (1974)). ATP content was measured with a commercial kit according to the manufacturer's instructions (Roche).
as §2
Whole body adult-inducible Egln1 knockout mice (Minamishima et al, 2007) were treated with IP injection of tamoxifen for 3 days after which they were allowed to rest. The mice were given interperitoneal (IP) injections of 500 mg NMN/kg body weight per day or the equivalent volume of PBS for 7 consecutive days at 5:00 pm and 7:00 am on day 8 and sacrificed 4 hr after last injection. All animal studies followed the guidelines of and were approved by the Harvard Institutional Animal Care and Use Committee.
Cytochrome c oxidase activity was polarographically determined based on the 02 consumption upon cytochrome c oxidation, as previously described (Brautigan et al., 1978). The reaction was carried out at 25° C. in 1.3 mL of standard respiratory medium (as in mitochondrial respiration) supplemented with 2 μM rotenone, 10 μM oxidized cytochrome c, 0.3 mg TritonX-100. Following addition of the sample, the reaction was initiated by adding 5 mM ascorbate plus 0.25 mM tetramethylphenylene-diamine (TMPD).
ATP content was measured with a commercial kit according to the manufacturer's instructions (Roche).

[4] = treated 24-month-old mice, NMN 500 mg/kg IP, one week

NC(=O)c1ccc[n+]([C@@H]2O[C@H](COP(=O)([O-])O)[C@@H](O)[C@H]2O)c1 [NMN, nicotinamide mononucleotide]
inflammation related markers (IL-6, TNFa, Nlrp3, IL-1b, CD68 and IL-10) in aortas ([1]; FIG. 26): reduces inflammation in aortas from old mice
inflammatory markers (VEGF and IL-18) in aortas ([1]; FIG. 27): reduces inflammation in aortas from old mice
expression of HIF-1α target genes [2]: suppressed the expression of HIF-1α target genes
insulin signaling (phosphorylation of AKT and IRS-1) (AKT and IRS-1): restore insulin signaling
ATP levels ([3]; 22-month-old mice, gastrocnemius, NMN one week): increase
ATP levels in the skeletal muscle ([3]; Egln1 KO mice treated with NMN, compared to WT controls): did not restore
ability of NMN to improve mitochondrial function ([3]; inducible SIRT1 KO mice): lost in animals lacking SIRT1
COX activity ([3]; old mice, NMN one week (FIG. 24H: 3- and 24-month-old)): increase
ATP levels [3, 4]: increases
COX activity [3, 4]: increases
mitochondrial membrane potential [3, 4]: restoration of mitochondrial membrane potential to the levels of the young mice
